# Source: patent US20210169690A1, “Self-Retaining Implantable Drug Delivery Device” (GoldenBiotech, LLC, priority 2019, published 2021)
# Legend:
# Format in all cases: physicochemical
# [1] = Visual examination of physical appearance and mixing of drug-loaded silicone polymer matrix test samples; details: 15% and 20% Travoprost test samples
# From the text: To test the loading capacity of a silicone elastomer polymer matrix for a prostaglandin analogue, polymer matrix with different amounts and types of a prostaglandin analogue were made and the physical and mechanical properties of the resulting polymerized drug-loaded matrix were characterized (Tables 1-3). These polymer matrix test samples were made by mixing together a prostaglandin analogue, a liquid cyclic vinyl siloxane elastomer, a crosslinker, and a catalyst using a high-speed mixer and then heated the capped container at 70° C. for 24 hours to cure the mixture. A filler, such as a fumed silica, was also used to provide sufficient mechanical strength to the polymerized matrix. In addition, an inhibitor was used to slow the crosslinking reaction to a workable rate. The resulting thin-disc-shaped drug-loaded polymer matrix was allowed to cool to room temperature and then placed in 4° C. for 24 hours to increase stiffness of the material. The physical appearance of each drug-loaded polymer matrix test sample was examined visually and its mechanical properties analyzed using a durometer.
# [2] = In vitro drug release from silicone polymer matrix test samples in PBS pH 7.4 at 37° C., RPHPLC; details: 10% Travoprost matrix plug, PARYLENE about 0.68 μm, two 18G depot channels
# Experimental: To test the controlled release properties of the disclosed drug-loaded silicone polymer matrices, the effects of a coating were examined. In these experiments, test samples were made as described in Example 1 to produce thin-disc-shaped drug-loaded polymer matrix. From this material, test samples were prepared by 1) cutting out rectangular polygons of about 3 mm length, about 1 mm width and about 1 mm height were cut from polymerized drug-loaded material; or 2) cutting out cylindrical plugs of about 3 mm length and having a diameter of about 0.5 mm to about 1 mm. The weight of the test samples were in the range about 0.1 mg to about 4 mg.
# Certain of these cut test samples were then coated using one of three procedures. Cut test samples were coated with a polymer like poly(p-xylylene) (PARYLENE) to a thickness of about 0.10 μm to about 0.95 μm using a vapor phase deposition procedure. Similarly, cut test samples were coated a metal like titanium to a thickness of about 0.10 μm to about 0.95 μm using a vapor phase deposition procedure. Alternatively, cut test samples were physically wrapped with a tape like polytetrafluoroethylene tape and sealed using cyanoacrylate adhesive.
# The presence of opening in a coated test sample was also examined. In these experiments, coated test samples were punctured to produce opening through the coating layer. From one to four opening were made using the tip of an 18G, 23G, 27G or 31G needle. Two types of opening were produced 1) surface pores which created openings only through the coating layer but left the polymer matrix intact; and 2) depot channels which created a tunnel through the entire coated test sample from one end to the other end.
# To examine the drug release properties of a test sample, each sample was placed in 2 mL Eppendorf tube containing 1.5 mL of Phosphate Buffered Saline, pH 7.4 (PBS). These tubes were slowly rocked at 37° C. in an incubator. At given time points the PBS was completely removed from the tube and refilled with fresh PBS. An aliquot of the removed PBS was then analyzed by reversed phase HPLC (RPHPLC) to determine the amount of drug released from the test sample during the incubation period. In these experiments, a 10 μL injection of the test sample aliquot was run on an Agilent 1260 Infinity in a reverse phase isocratic mode using UV detection at 210 nm. The column was a Hypersil GOLD Phenyl column, (Dim. (mm) 250×4.6) and the mobile phase was a 1:1 mixture of acetonitrile to aqueous buffer (comprising HPLC grade water mixed with 5 mM ammonium acetate and 0.02% formic acid). The flow rate was 1.2 mL/min and column temperature was 22° C. Peak detection and quantitation was determined by establishing a calibration curve using known amounts of each drug tested and the amount of drug present in the test sample aliquot interpolated from this calibration curve using ChemStation software.
# [3] = Korsmeyer-Peppas analysis of drug release data
# Experimental: To confirm the results obtained based on the Higuchi equation analysis, the data above was also analyzed using the Korsmeyer-Peppas plot, which evaluates the mechanism of drug release by plotting the log of percent drug released over the log time in hours. If n equals 0.45, then Fickian diffusion is indicated for a cylinder (0.42 for cylinder of low aspect ratio). […] As exemplified FIG. 11, data is plotted as the log of cumulative percent drug released on the y-axis and the log time in hours on the x-axis.
# [4] = Modified Higuchi plot (2A versus Q^2/T)
# Experimental: Travoprost and Latanoprost are oily liquids at room temperature whereas Bimatoprost is a solid at room temperature. To determine whether the liquid versus solid phase of these drugs affects their release from the silicone polymer matrix, data was analyzed using an alternative plot based on the Higuchi equation where twice the drug loading value (2A) is plotted on the […] and the average slope of the plot of cumulative drug released squared versus time in hours (Q^2/T) is plotted on the […].
# [5] = Release from post-loaded section of the drug delivery device (Example 5)
# Experimental: A central section of a self-retaining implantable drug delivery device disclosed herein was loaded with Travoprost by cutting a 3 mm section of the device and then placed into 0.200 mL of hexanes for 3 hours. Following this period, the self-retaining implantable drug delivery device was placed immediately into 0.050 mL of a Travoprost stock solution 25 mg/mL in ethanol and allowed to stand overnight. The following day, this section was washed sequentially by dipping into a water bath, followed by a 10% acetonitrile bath. It was dried at 80 C and set to release the following day. The section was allowed to release over a period of 38 days. The loading was determined to be approximately 13 mcg. […] This release profile is predicted by the Higuchi mechanism. This type of loading procedure we term post loading. The loaded section is coated with a poly(p-xylylene) polymer and two tiny holes are place completely through the section. The section is then molded together with the two flanking sections of the stent to form the final product. The release from this modified stent follows a near zero order release in vitro and in vivo in preclinical animal models and clinical studies.
structure (smiles),measurement,setting,value
CC(C)OC(=O)CCC/C=C\C[C@@H]1[C@@H](/C=C/[C@@H](O)COc2cccc(C(F)(F)F)c2)[C@H](O)C[C@@H]1O [Travoprost],physical examination of test samples,[1],exhibited more elasticity but had surfaces with tacky attributes and a consistency that was not fully homogeneous
same,Daily Release Rate,[2]; day 1,3.12 µg/day
same,Daily Release Rate,[2]; day 5,2.21 µg/day
same,Daily Release Rate,[2]; day 13,1.15 µg/day
same,Daily Release Rate,[2]; day 22,1.29 µg/day
same,Daily Release Rate,[2]; day 26,1.30 µg/day
same,Daily Release Rate,[2]; day 35,1.16 µg/day
same,Daily Release Rate,[2]; day 43,1.15 µg/day
same,Daily Release Rate,[2]; day 54,1.35 µg/day
same,Daily Release Rate,[2]; day 63,1.16 µg/day
same,Daily Release Rate,[2]; day 70,1.20 µg/day
same,Daily Release Rate,[2]; day 83,0.900 µg/day
same,Daily Release Rate,[2]; day 90,0.882 µg/day
same,Daily Release Rate,[2]; day 97,0.387 µg/day
same,Daily Release Rate,[2]; day 105,0.891 µg/day
same,Daily Release Rate,[2]; day 111,0.798 µg/day
same,Daily Release Rate,[2]; day 162,0.557 µg/day
same,"Average n Values, Korsmeyer-Peppas Analysis",[3]; Drug Loading 2.5%,0.543±
same,"Average n Values, Korsmeyer-Peppas Analysis",[3]; Drug Loading 5%,0.507±
same,"Average n Values, Korsmeyer-Peppas Analysis",[3]; Drug Loading 10%,0.453±
same,"Average n Values, Korsmeyer-Peppas Analysis, Mean",[3]; Mean over drug loadings,0.50 ± 0.09
same,average slope of cumulative drug released squared versus time in hours (Q^2/T),[4]; Loading (A %) 1.0,0.071 ± 0.001
same,average slope of cumulative drug released squared versus time in hours (Q^2/T),[4]; Loading (A %) 2.5,0.388 ± 0.046
same,average slope of cumulative drug released squared versus time in hours (Q^2/T),[4]; Loading (A %) 5.0,1.097 ± 0.218
same,average slope of cumulative drug released squared versus time in hours (Q^2/T),[4]; Loading (A %) 10,15.821 ± 4.141
same,relationship of Q^2/T to 2A in modified Higuchi plot,"[4]; Table 10, FIG. 12 and FIG. 13",curvilinear relationship
same,loading,[5]; 3 mm device section post loaded from 25 mg/mL Travoprost in ethanol,approximately 13 mcg
same,release at 38 days,[5]; post-loaded uncoated 3 mm section,99%
same,release profile,"[5]; post-loaded uncoated 3 mm section, over 38 days",curvilinear/asymptotic profile
